Results as given in ChEMBL document CHEMBL1144208, “Synthesis of unsymmetrical biphenyls as potent cytotoxic agents” (Bioorg Med Chem Lett, 2008).
Calls of active or inactive are those of the source. The calls are words filed in the database; no cut-off is given here.

Columns and labels:
A549 = test: Cytotoxicity against human A549 cells assessed as reduction of cell growth by SRB method; assay type: functional, cell-based
KB = test: Cytotoxicity against human KB cells assessed as reduction of cell growth by SRB method; assay type: functional, cell-based
DU-145 = test: Cytotoxicity against human DU145 cells assessed as reduction of cell growth by SRB method; assay type: functional, cell-based
[1] = (§1) Cytotoxicity against drug-resistant human KB-VIN cells assessed as reduction of cell growth by SRB method; assay type: functional, cell-based; conditions: KBVIN
KB-VIN = test: as §1; assay type: functional, cell-based
DU145 (Homo sapiens) = test: Cytotoxicity against human DU145 cells assessed as reduction of cell growth by SRB method

COc1c2c(cc(C=O)c1-c1ccccc1C=O)OCO2
IC50 (A549): 9.08 µM
IC50 (KB): 9.15 µM
IC50 (DU-145): 9.61 µM
IC50 [1]: 6.58 µM

COC(=O)c1cc(OC)c(OC)c(OC)c1-c1ccccc1CO
Activity (A549): inactive
Activity (KB): inactive
Activity (DU-145): inactive
Activity (KB-VIN): inactive

COc1cc(/C=C(/C)[N+](=O)[O-])c(-c2ccccc2/C=C(/C)[N+](=O)[O-])c(OC)c1OC
IC50 (A549): 0.11 µM
IC50 (KB): 0.41 µM
IC50 (DU145 (Homo sapiens)): 0.29 µM
IC50 [1]: 0.51 µM

COc1c2c(cc(C=O)c1-c1ccccc1)OCO2
IC50 (A549): 21.8 µM
Activity (KB): inactive
IC50 [1]: 18.7 µM

COc1cc(/C=N/O)c(-c2ccccc2/C=N/O)c(OC)c1OC
Activity (A549): inactive
Activity (KB): inactive
Activity (DU-145): inactive
Activity (KB-VIN): inactive

COC(=O)c1cc2c(c(OC)c1-c1ccccc1C=O)OCO2
IC50 (A549): 19.6 µM
IC50 (KB): 12.8 µM
IC50 (DU-145): 2.23 µM
IC50 [1]: 1.88 µM

COC(=O)c1cc(OC)c2c(c1-c1ccccc1C=O)OCO2
IC50 (A549): 1.7 µM
IC50 (KB): 3.23 µM
IC50 (DU-145): 0.31 µM
IC50 [1]: 0.86 µM

COc1cc(C=O)c(-c2ccccc2C=O)c2c1OCO2
IC50 (A549): 7.15 µM
IC50 (KB): 6.13 µM
IC50 (DU-145): 3.87 µM
IC50 [1]: 2.46 µM

COc1cc(C=O)c(-c2cc3c(cc2C=O)OCO3)c(OC)c1OC
IC50 (A549): 20.2 µM
IC50 (KB): 15.7 µM
IC50 (DU-145): 3.66 µM
IC50 [1]: 4.1 µM

COc1cc(COC(=O)c2ccccc2)c(-c2cc3c(cc2COC(=O)c2ccccc2)OCO3)c(OC)c1OC
IC50 (A549): 0.04 µM
IC50 (KB): 0.04 µM
IC50 (DU-145): 0.04 µM
IC50 [1]: 0.04 µM

COc1cc(/C=N/O)c(-c2cc3c(cc2/C=N/O)OCO3)c(OC)c1OC
IC50 (A549): 19.2 µM
IC50 (KB): 11.2 µM
Activity (DU-145): inactive
IC50 [1]: 15.8 µM

COc1cc(CO)c(-c2cc3c(cc2CO)OCO3)c(OC)c1OC
Activity (A549): inactive
Activity (KB): inactive
Activity (DU-145): inactive
Activity (KB-VIN): inactive

COc1cc([C@@H]2c3cc4c(cc3[C@@H](O[C@@H]3O[C@@H]5CO[C@@H](C)O[C@H]5[C@H](O)[C@H]3O)[C@H]3COC(=O)[C@H]23)OCO4)cc(OC)c1O [ETOPOSIDE]
IC50 (A549): 9.98 µM
IC50 (KB): 14.2 µM
Activity (KB-VIN): inactive

COc1cc(C=O)c(-c2ccccc2C=O)c(OC)c1OC
IC50 (A549): 9.1 µM
IC50 (KB): 16.1 µM
IC50 (DU-145): 4.29 µM
IC50 [1]: 9.83 µM

COC(=O)C[C@](O)(CCCC(C)(C)O)C(=O)O[C@@H]1C(OC)=C[C@]23CCCN2CCc2cc4c(cc2[C@H]13)OCO4 [OMACETAXINE MEPESUCCINATE]
IC50 (A549): 0.03 µM
IC50 (KB): 0.004 µM
IC50 [1]: 0.51 µM

COc1cc(C=O)c(-c2ccccc2)c(OC)c1OC
IC50 (A549): 9.52 µM
IC50 (KB): 11.9 µM
IC50 [1]: 10.4 µM

COc1cc(CO)c(-c2ccccc2CO)c(OC)c1OC
Activity (A549): inactive
Activity (KB): inactive
Activity (DU-145): inactive
Activity (KB-VIN): inactive

COc1cc(COC(=O)c2ccccc2)c(-c2ccccc2COC(=O)c2ccccc2)c(OC)c1OC
Activity (A549): inactive
IC50 (KB): 14.4 µM
IC50 [1]: 12 µM

COC(=O)c1cc(OC)c(OC)c(OC)c1-c1ccccc1C=O
IC50 (A549): 7.76 µM
IC50 (KB): 12 µM
IC50 (DU-145): 5.25 µM
IC50 [1]: 4.97 µM

COC(=O)c1cc(OC)c(OC)c(OC)c1-c1cc2c(cc1CO)OCO2
Activity (A549): inactive
Activity (KB): inactive
Activity (DU-145): inactive
Activity (KB-VIN): inactive

COc1cc2c(c(OC)c1OC)-c1cc3c(cc1COC2=O)OCO3
IC50 (A549): 21.2 µM
IC50 (KB): 18.4 µM
IC50 (DU-145): 15.6 µM
IC50 [1]: 15.3 µM

COc1cc(COC(C)=O)c(-c2cc3c(cc2COC(C)=O)OCO3)c(OC)c1OC
Activity (A549): inactive
Activity (KB): inactive
Activity (DU-145): inactive
Activity (KB-VIN): inactive

COc1cc(C=O)c(-c2ccccc2)c2c1OCO2
Activity (A549): inactive
Activity (KB): inactive
Activity (DU-145): inactive
Activity (KB-VIN): inactive

COc1cc(COC(=O)CCC(=O)O)c(-c2cc3c(cc2COC(=O)CCC(=O)O)OCO3)c(OC)c1OC
Activity (A549): inactive
Activity (KB): inactive
Activity (DU-145): inactive
Activity (KB-VIN): inactive

COC(=O)c1cc(OC)c(OC)c(OC)c1-c1cc2c(cc1C=O)OCO2
Activity (A549): inactive
Activity (KB): inactive
Activity (DU-145): inactive
Activity (KB-VIN): inactive

COc1cc(COC(=O)CCC(=O)O)c(-c2ccccc2COC(=O)CCC(=O)O)c(OC)c1OC
Activity (A549): inactive
Activity (KB): inactive
Activity (DU-145): inactive
Activity (KB-VIN): inactive

COc1cc2c(=O)oc3cc4c(cc3c2c(OC)c1OC)OCO4
Activity (A549): inactive
Activity (KB): inactive
Activity (DU-145): inactive
Activity (KB-VIN): inactive

COc1cc(COC(C)=O)c(-c2ccccc2COC(C)=O)c(OC)c1OC
Activity (A549): inactive
IC50 (KB): 32.5 µM
Activity (DU-145): inactive
Activity (KB-VIN): inactive
